Experimental data as given in patent US11161856B2 (H. Lundbeck A/S, priority 2017, dated 2021).

Assays:
ABHD6 = biological target: T1, ABHD6 (Mus musculus, UniProt Q8R2Y0); test: In vitro competitive activity-based protein profiling, mouse brain proteome (ABHD6); format: biochemical; details: mouse brain proteome; concentration not given (μM)
T1 construct: Brain; from tissue; host or cells: mouse brain proteome
T1 sequence (Q8R2Y0 1-336): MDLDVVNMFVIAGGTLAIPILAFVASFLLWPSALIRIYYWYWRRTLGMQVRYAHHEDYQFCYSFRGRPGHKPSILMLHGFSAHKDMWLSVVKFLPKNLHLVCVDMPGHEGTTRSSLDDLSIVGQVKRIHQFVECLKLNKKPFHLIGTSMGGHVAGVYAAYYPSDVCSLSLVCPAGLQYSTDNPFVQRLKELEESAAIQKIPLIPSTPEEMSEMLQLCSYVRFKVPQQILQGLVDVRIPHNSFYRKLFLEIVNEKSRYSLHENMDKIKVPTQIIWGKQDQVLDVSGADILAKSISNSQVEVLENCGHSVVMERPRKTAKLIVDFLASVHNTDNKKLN
Description: [The source words this procedure for another target and reports this target under the same test.] In Vitro Competitive Activity-Based Protein Profiling.
Proteomes (human prefrontal cortex or cell membrane fractions) (50 μL, 1.0 mg/mL total protein concentration) were preincubated with varying concentrations of inhibitors at 37° C. After 30 min, FP-Rh or HT-01 (1.0 μL, 50 μM in DMSO) was added and the mixture was incubated for another 30 min at room temperature. Reactions were quenched with SDS loading buffer (15 μL-4×) and run on SDS-PAGE.

MGLL = biological target: T2, MGLL (Mus musculus, UniProt O35678); test: In vitro competitive activity-based protein profiling, mouse brain proteome (MGLL); format: biochemical; design: IC50 MGLL Brain (Mouse, μM): scale not given here; details: for % Inh MGLL Brain (Mouse, μM): concentration not given (μM)
T2 construct: Brain; from tissue; host or cells: mouse brain proteome
T2 sequence (O35678 1-303): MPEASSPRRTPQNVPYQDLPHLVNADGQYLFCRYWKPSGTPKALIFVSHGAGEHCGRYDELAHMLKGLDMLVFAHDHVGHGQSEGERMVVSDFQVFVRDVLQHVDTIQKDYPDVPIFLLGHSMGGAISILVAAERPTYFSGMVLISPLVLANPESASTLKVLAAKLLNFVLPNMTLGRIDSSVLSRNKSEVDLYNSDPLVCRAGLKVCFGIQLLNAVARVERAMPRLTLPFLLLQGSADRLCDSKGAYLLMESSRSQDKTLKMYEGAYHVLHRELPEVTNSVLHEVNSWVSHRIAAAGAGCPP

% Inh ABHD6 Brain (Mouse, μM) (ABHD6)	% Inh MGLL Brain (Mouse, μM) (MGLL)	IC50 MGLL Brain (Mouse, μM) (MGLL)	Compound
### (### is ≥75%)	### (### is ≥75%)		CCN1CCN(c2cccc(Cl)c2CN2CC3(CCN(C(=O)OC(C(F)(F)F)C(F)(F)F)CC3)C2)CC1 [Example 50, 1,1,1,3,3,3-Hexafluoropropan-2-yl 2-(2-chloro-6-(4-ethylpiperazin-1-yl)benzyl)-2,7-diazaspiro[3.5]nonane-7-carboxylate]
# (# is ≤25%)	### (### is ≥75%)		CC(=O)N1CC2(CCN(c3cc(C(F)(F)F)ccc3CN3CCN(C(=O)OC(C(F)(F)F)C(F)(F)F)CC3)C2)C1 [Example 180, 1,1,1,3,3,3-Hexafluoropropan-2-yl 4-(2-(2-acetyl-2,6-diazaspiro[3,4]octan-6-yl)-4-(trifluoromethyl)benzyl)pipera zine-1-carboxylate]
### (### is ≥75%)	### (### is ≥75%)		O=C(OC(C(F)(F)F)C(F)(F)F)N1CCC2(CC1)CN(Cc1ccc(N3CCOCC3)cc1)C2 [Example 81, 1,1,1,3,3,3-Hexafluoropropan-2-yl 2-(4-morpholinobenzyl)-2,7-diazaspiro[3.5]nonane-7-carboxylate]
# (# is ≤25%)	### (### is ≥75%)	* * *	CS(=O)(=O)N1CCC2(CCN(c3cc(Cl)ccc3CN3CCN(C(=O)OC(C(F)(F)F)C(F)(F)F)CC3)C2)CC1 [Example 30, 1,1,1,3,3,3-Hexafluoropropan-2-yl 4-(4-chloro-2-(8-(methylsulfonyl)-2,8-diazaspiro[4.5]decan-2-yl)benzyl)piperazine-1-carboxylate]
### (### is ≥75%)	### (### is ≥75%)		COc1cccc(CN2CC3(CCN(C(=O)OC(C(F)(F)F)C(F)(F)F)CC3)C2)c1 [Example 87, 1,1,1,3,3,3-Hexafluoropropan-2-yl 2-(3-methoxybenzyl)-2,7-diazaspiro[3.5]nonane-7-carboxylate]
### (### is ≥75%)	### (### is ≥75%)		O=C(OC(C(F)(F)F)C(F)(F)F)N1CCC2(CC1)CN(Cc1c(Cl)cccc1N1CCOCC1)C2 [Example 46, 1,1,1,3,3,3-Hexafluoropropan-2-yl 2-(2-chloro-6-morpholinobenzyl)-2,7-diazaspiro[3.5]nonane-7-carboxylate]
# (# is ≤25%)	### (### is ≥75%)		CC(=O)N1CC2(CCN(c3ccccc3CN3CCC34CCN(C(=O)OC(C(F)(F)F)C(F)(F)F)CC4)C2)C1 [Example 228, 1,1,1,3,3,3-Hexafluoropropan-2-yl 1-(2-(2-acetyl-2,6-diazaspiro[3,4]octan-6-yl)benzyl)-1,7-diazaspiro[3.5]nonane-7-carboxylate]
### (### is ≥75%)	### (### is ≥75%)		O=C(OC(C(F)(F)F)C(F)(F)F)N1CCC2(CC1)CN(Cc1ccccc1N1CCCC1)C2 [Example 88, 1,1,1,3,3,3-Hexafluoropropan-2-yl 2-(2-(pyrrolidin-1-yl)benzyl)-2,7-diazaspiro[3.5]nonane-7-carboxylate]
## (## is between 25 and 75%)	### (### is ≥75%)		O=C(OC(C(F)(F)F)C(F)(F)F)N1CCC2(CC1)CN(Cc1c(N3CCOCC3)cccc1C(F)(F)F)C2 [Example 43, 1,1,1,3,3,3-Hexafluoropropan-2-yl 2-(2-morpholino-6-(trifluoromethyl)benzyl)-2,7-diazaspiro[3.5]nonane-7-carboxylate]
### (### is ≥75%)	### (### is ≥75%)		O=C(OC(C(F)(F)F)C(F)(F)F)N1CCC2(CC1)CN(Cc1c(N3CCC4(CCOCC4)C3)cccc1C(F)(F)F)C2 [Example 52, 1,1,1,3,3,3-Hexafluoropropan-2-yl 2-(2-(8-oxa-2-azaspiro[4.5]decan-2-yl)-6-(trifluoromethyl)benzyl)-2,7-diazaspiro[3.5]nonane-7-carboxylate]
# (# is ≤25%)	### (### is ≥75%)		CN1CC2CN(c3cc(Cl)ccc3CN3CCN(C(=O)OC(C(F)(F)F)C(F)(F)F)CC3)CC2C1 (stereo not shown) [Example 206, 1,1,1,3,3,3-Hexafluoropropan-2-yl 4-(4-chloro-2-(5-methylhexahydropyrrolo[3,4-c]pyrrol-2(1H)-yl)benzyl)piperazine-1-carboxylate]
### (### is ≥75%)	### (### is ≥75%)		O=C(OC(C(F)(F)F)C(F)(F)F)N1CCC2(CC1)CN(Cc1c(N3CCC(F)CC3)cccc1C(F)(F)F)C2 [Example 51, 1,1,1,3,3,3-Hexafluoropropan-2-yl 2-(2-(4-fluoropiperidin-1-yl)-6-(trifluoromethyl)benzyl)-2,7-diazaspiro[3,5]nonane-7-carboxylate]
## (## is between 25 and 75%)	### (### is ≥75%)		CS(=O)(=O)N1CCC2(CCN(c3cc(C(F)(F)F)ccc3CN3CCC4(CCN(C(=O)OC(C(F)(F)F)C(F)(F)F)C4)C3)CC2)C1 (stereo not shown) [Example 242, 1,1,1,3,3,3-Hexafluoropropan-2-yl 7-(2-(2-(methylsulfonyl)-2,8-diazaspiro[4.5]decan-8-yl)-4-(trifluoromethyl)benzyl)-2,7-diazaspiro[4.4]nonane-2-carboxylate]
# (# is ≤25%)	### (### is ≥75%)		CS(=O)(=O)N1CCCC12CCN(c1cc(C(F)(F)F)ccc1CN1CCN(C(=O)OC(C(F)(F)F)C(F)(F)F)CC1)CC2 [Example 209, 1,1,1,3,3,3-Hexafluoropiopan-2-yl 4-(2-(1-(methylsulfonyl)-1.8-diazaspiro[4.5]decan-8-yl)-4-(trifluoromethyl)benzyl) piperazine-1-carboxylate]
### (### is ≥75%)	### (### is ≥75%)		O=C(OC(C(F)(F)F)C(F)(F)F)N1CCC2(CC1)CN(Cc1ccccc1N1CCOCC1)C2 [Example 96, 1,1,1,3,3,3-Hexafluoropropan-2-yl 2-(2-morpholinobenzyl)-2,7-diazaspiro[3,5]nonane-7-carboxylate]
# (# is ≤25%)	### (### is ≥75%)		CN1CCCC12CCN(c1cc(C(F)(F)F)ccc1CN1CCN(C(=O)OC(C(F)(F)F)C(F)(F)F)CC1)CC2 [Example 215, 1,1,1,3,3,3-Hexafluoropropan-2-yl 4-(2-(1-methyl-1,8-diazaspiro[4.5]decan-8-yl)-4-(trifluoromethyl)benzyl) piperazine-1-carboxylate]
# (# is ≤25%)	### (### is ≥75%)		CC(=O)N1CCC2(CCN(c3cc(C(F)(F)F)ccc3CN3CCN(C(=O)OC(C(F)(F)F)C(F)(F)F)CC3)CC2)C1 [Example 189, 1,1,1,3,3,3-Hexafluoropropan-2-yl 4-(2-(2-acetyl-2,8-diazaspiro[4.5]decan-8-yl)-4-(trifliioromethyl)benzyl) piperazine-1-carboxylate]
### (### is ≥75%)	### (### is ≥75%)		CN(Cc1ccc(C(F)(F)F)cc1N1CCOCC1)C1(C)CCN(C(=O)OC(C(F)(F)F)C(F)(F)F)CC1 [Example 63, 1,1,1,3,3,3-Hexafluoropropan-2-yl 4-methyl-4-(methyl(2-morpholino-4-(trifluoromethyl)benzyl)amino) piperidine-1-carboxylate]
# (# is ≤25%)	### (### is ≥75%)		CC(=O)N1CCC2(CC1)CN(c1cc(C(F)(F)F)ccc1CN1CCN(C(=O)OC(C(F)(F)F)C(F)(F)F)CC1)C2 [Example 199, 1.1,1.3.3,3-Hexafluoropropan-2-yl 4-(2-(7-acetyl-2,7-diazaspiro[3.5]nonan-2-yl)-4-(trifluoromethyl)benzyl)pipera zine-l-carboxylate]
### (### is ≥75%)	### (### is ≥75%)		CS(=O)(=O)N1CC2(CCN(c3cc(C(F)(F)F)ccc3CN3CCN(C(=O)OC(C(F)(F)F)C(F)(F)F)CC3)CC2)C1 [Example 211, 1,1,1,3,3,3-Hexafluoropropan-2-yl 4-(2-(2-(methylsulfonyl)-2,7-diazaspiro[3.5]nonan-7-yl)-4-(trifluoiomethyl)benzyl) piperazine-1-carboxylate]
### (### is ≥75%)	### (### is ≥75%)		O=C(OC(C(F)(F)F)C(F)(F)F)N1CC2(CCN(Cc3ccc(C(F)(F)F)cc3N3CCOCC3)CC2)C1 [Example 40, 1,1,1,3,3,3-Hexafluoropropan-2-yl 7-(2-morpholino-4-(triiluoromethyl)benzyl)-2,7-diazaspiro[3.5]nonane-2-carboxylate]
